Results reported in patent publication US12152048B2, “Nitroxoline prodrug and use thereof” (Jiangsu Yahong Meditech Co., Ltd., priority 2018, dated 2024).
Converted amounts (≈) assume the structure as drawn.

Assays:
[1] = Stability in rat liver microsome; conditions: 2 μM, 37° C., 30 minutes
[2] = Stability in dog liver microsome; conditions: 2 μM, 37° C., 30 minutes
Stability in dog plasma = format: in vitro ADME
[3] = Stability in plasma, overall conclusion (species not stated); conditions: conclusion in words
[4] = Stability in human liver microsome; conditions: 2 μM, 37° C., 30 minutes
[5] = Determination of water solubility in phosphate buffer; format: physicochemical; conditions: aqueous buffer, thermodynamic from solid; phosphate buffer pH 7.4, room temperature, 24 hours
In short: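 Thermodynamic solubility: compound concentration measured by LC/MS/MS in the vacuum filtrate after 24 h shaking at room temperature of 2 mg powder in 500 μL phosphate buffer at pH 1.2, 4.5, 6.8 or 7.4.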

[6] = Stability in liver microsome, overall conclusion (species not stated); format: in vitro ADME; conditions: conclusion in words
[7] = Stability in mouse liver microsome; format: in vitro ADME; conditions: 2 μM, 37° C., 30 minutes
[8] = Stability in mouse plasma; format: in vitro ADME
From the text: (§1) Experimental instruments: thermostatic shaker (SHA-B, Guohua Electric Appliance Co., Ltd.); centrifuge (5810R, Eppendorf); mass spectrometry (AP4000, Applied Biosystems, USA); liquid chromatography (LC-30AD, Shimadzu); sample injector (CTC Analytics AG System, CTC).
(§2) Test animals: plasma of human (batch number: BRH1343165), rat (batch number: RAT336728), mouse (batch number: MSE280000), dog (batch number: BGL99137) and monkey (batch number: PH-Monkey-20180821) are purchased from Shanghai Sixin Biological Technology Co., Ltd.
(§3) Experimental process: the compound of the present invention was dissolved in an organic solvent to obtain a 1 mM working solution. 3 μL of the working solution were added to 597 μL of pre-incubated human or rat plasma and mixed well. 50 μL of the solution were immediately taken out as the 0 minute sample. The remaining sample was incubated at 37° C., and 50 μL of sample were taken out at 15, 30, 60 and 120 minutes respectively. All the samples taken out were immediately processed to precipitate protein, and centrifuged to obtain a supermate for the determination of the compound concentration by LC/MS/MS.

[9] = Stability in monkey plasma; format: in vitro ADME
From the text: as §1, §2, §3

[10] = Stability in human plasma
From the text: as §1, §2, §3

From the text for Stability in rat plasma: as §1, §2, §3

Percentage of the compound remaining in rat liver microsome ([1]; with coenzyme) [%] | Percentage of the compound remaining in rat liver microsome ([1]; without coenzyme) [%] | Percentage of the compound remaining in dog liver microsome ([2]; with coenzyme) [%] | Percentage of the compound remaining in dog liver microsome ([2]; without coenzyme) [%] | Percentage of the compound remaining in plasma (Stability in dog plasma; 0 minute) [%] | Percentage of the compound remaining in plasma (Stability in dog plasma; 37° C., 15 minutes) [%] | Percentage of the compound remaining in plasma (Stability in dog plasma; 37° C., 30 minutes) [%] | Percentage of the compound remaining in plasma (Stability in dog plasma; 37° C., 60 minutes) [%] | Percentage of the compound remaining in plasma (Stability in dog plasma; 37° C., 120 minutes) [%] | stability in plasma [3] | Percentage of the compound remaining in human liver microsome ([4]; with coenzyme) [%] | Percentage of the compound remaining in human liver microsome ([4]; without coenzyme) [%] | solubility at 24 h [5] [µg/mL] | stability in microsome [6] | Percentage of the compound remaining in mouse liver microsome ([7]; with coenzyme) [%] | Percentage of the compound remaining in mouse liver microsome ([7]; without coenzyme) [%] | Percentage of the compound remaining in plasma ([8]; 0 minute) [%] | Percentage of the compound remaining in plasma ([8]; 37° C., 15 minutes) [%] | Percentage of the compound remaining in plasma ([8]; 37° C., 30 minutes) [%] | Percentage of the compound remaining in plasma ([8]; 37° C., 60 minutes) [%] | SMILES | further results
54.58 | 54.77 | 70.38 | 82.59 | 100.0 | 96.3 | 92.3 | 78.6 | 67.3 | high stability | 79.98 | 84.61 | 45.5 (≈ 136 µM) | high stability | 32.13 | 55.80 |  |  |  |  | COC(=O)CNC(=O)OCOc1ccc([N+](=O)[O-])c2cccnc12 [Compound 53, methyl 2-(((5-nitroquinolin-8-yloxy)methoxy)formamido)acetate] | 
75.71 | 99.73 | 38.76 | 114.53 | 100.0 | 111.5 | 111.9 | 114.6 | 105.9 | high stability | 109.46 | 118.37 | 985 (≈ 2840 µM) | high stability | 51.08 | 116.52 | 100.0 | 97.7 | 95.4 | 98.9 | CN1CCN(C(=O)OCOc2ccc([N+](=O)[O-])c3cccnc23)CC1 [Compound 6, (5-nitroquinolin-8-yloxy)methyl 4-methylpiperazine-1-carboxylate] | Percentage of the compound remaining in plasma ([8]; 37° C., 120 minutes): 92.1%; Percentage of the compound remaining in plasma ([9]; 0 minute): 100.0%; Percentage of the compound remaining in plasma ([9]; 37° C., 15 minutes): 98.3%; Percentage of the compound remaining in plasma ([9]; 37° C., 30 minutes): 101.1%; Percentage of the compound remaining in plasma ([9]; 37° C., 60 minutes): 91.6%; Percentage of the compound remaining in plasma ([9]; 37° C., 120 minutes): 98.9%; Percentage of the compound remaining in plasma (Stability in rat plasma; 0 minute): 100.0%; Percentage of the compound remaining in plasma (Stability in rat plasma; 37° C., 15 minutes): 95.5%; Percentage of the compound remaining in plasma (Stability in rat plasma; 37° C., 30 minutes): 98.8%; Percentage of the compound remaining in plasma (Stability in rat plasma; 37° C., 60 minutes): 90.2%; Percentage of the compound remaining in plasma (Stability in rat plasma; 37° C., 120 minutes): 89.4%; Percentage of the compound remaining in plasma ([10]; 0 minute): 100.0%; Percentage of the compound remaining in plasma ([10]; 37° C., 15 minutes): 97.5%; Percentage of the compound remaining in plasma ([10]; 37° C., 30 minutes): 106.0%; Percentage of the compound remaining in plasma ([10]; 37° C., 60 minutes): 95.0%; Percentage of the compound remaining in plasma ([10]; 37° C., 120 minutes): 99.3%
69.51 | 90.84 | 28.07 | 83.78 | 100.0 | 104.0 | 107.2 | 106.5 | 101.8 | high stability | 91.44 | 96.71 | 134 (≈ 403 µM) | high stability | 55.15 | 82.50 | 100.0 | 98.5 | 98.8 | 96.1 | O=C(OCOc1ccc([N+](=O)[O-])c2cccnc12)N1CCOCC1 [Compound 7, (5-nitroquinolin-8-yloxy)methyl morpholine-4-carboxylate] | Percentage of the compound remaining in plasma ([8]; 37° C., 120 minutes): 89.3%; Percentage of the compound remaining in plasma ([9]; 0 minute): 100.0%; Percentage of the compound remaining in plasma ([9]; 37° C., 15 minutes): 96.5%; Percentage of the compound remaining in plasma ([9]; 37° C., 30 minutes): 105.9%; Percentage of the compound remaining in plasma ([9]; 37° C., 60 minutes): 99.0%; Percentage of the compound remaining in plasma ([9]; 37° C., 120 minutes): 98.7%; Percentage of the compound remaining in plasma (Stability in rat plasma; 0 minute): 100.0%; Percentage of the compound remaining in plasma (Stability in rat plasma; 37° C., 15 minutes): 94.0%; Percentage of the compound remaining in plasma (Stability in rat plasma; 37° C., 30 minutes): 98.6%; Percentage of the compound remaining in plasma (Stability in rat plasma; 37° C., 60 minutes): 95.0%; Percentage of the compound remaining in plasma (Stability in rat plasma; 37° C., 120 minutes): 91.6%; Percentage of the compound remaining in plasma ([10]; 0 minute): 100.0%; Percentage of the compound remaining in plasma ([10]; 37° C., 15 minutes): 93.5%; Percentage of the compound remaining in plasma ([10]; 37° C., 30 minutes): 97.8%; Percentage of the compound remaining in plasma ([10]; 37° C., 60 minutes): 99.6%; Percentage of the compound remaining in plasma ([10]; 37° C., 120 minutes): 105.2%
